“Also recorded” adds a separate entry of the source. Marks after values point to notes of the source that are not given here.
Key:
[1] = Stability of LE in aqueous suspension with or without Δ^1-cortienic acid at room temperature (HPLC); type: physicochemical; details: for k: 421 days
Procedure: To investigate the effect of Δ^1-cortienic acid (Δ^1-CA) on the stability of loteprednol etabonate (LE), the following experiments were conducted at room temperature (22.5° C.):
Inactives: Δ^1-CA, 0.1% (2.897 mM) & 0.2% (5.795 mM); Glycerin, Povidone, Tyloxapol, Edetate Disodium Dihydrate, Purified Water.
Preservative added: Benzalkonium Chloride 0.01%
• 1) To the mixture of 9.32 g glycerin (USP, 99.7%), 7.2 g Povidone (USP, 90000), 1.2 g Tyloxapol (USP), 0.08 g benzalkonium chloride (USP, […] of 50% solution), and 0.04 g Edetate Disodium Dihydrate (USP), 400 ml Purified Water (USP) was added. 2) The mixture was sonicated for 20 minutes to make a homogenous solution, and its pH was measured. 3) To 150 ml of each solution was added 0.15 g or 0.3 g of loteprednol etabonate (micronized), and the mixture was sonicated for 30 minutes to obtain two LE-only suspensions at 0.1% & 0.2%, respectively. 4) From each LE-only suspension (0.1 & 0.2%), 75 ml was taken and combined with micronized Δ^1-CA (0.075 & 0.15 g). 5) All four suspensions were mixed and sonicated again for another 30 minutes, and the pH of each was measured (Blank vehicle pH 3.4; LE only suspensions, pH 3.5; LE+Δ^1-CA suspensions, pH 3.3). 6) Each of the four suspensions was separated/pipetted (1 ml) into 8 ml amber vials (1 ml/vial) and the vials were sealed with caps and parafilm. 7) Half of each formula 1 ml/vial samples were loaded on a shaker for continuous shaking (170 times/min), and the other half of the samples were only shaken vigorously by hand each time before HPLC sample preparation. 8) For periodical samplings, one sample of every set of suspensions was taken and analyzed by HPLC. 9) All procedures were conducted at 22.5° C. Sample Preparation
The change of LE and its degradation products AE (acid etabonate) and Δ^1-CA in the suspensions was measured periodically. A vial of each series of suspensions was randomly taken, mixed/washed with 50% acetonitrile, and transferred to a 10 ml cylinder to make a final volume of 10 ml solution (about 100 μg/ml for LE 0.1% or 200 μg/ml for LE 0.2% samples).
A HPLC system operating at ambient temperature was used to quantitative determination of LE, AE and Δ^1-CA. Phenonemax Luna C18 (5μ, 150×4.6 mm) was connected to a Spectra-Physics component system consisting of a SP 8810 precision isocratic pump, a Rheodyne 7125 injector (injection volume 20 μl), a SP 8450 UV/VIS variable wavelength detector (operated at 254 nm), and a SP 4290 integrator. At a flow rate of 1 ml/min, a mobile phase consisting of acetonitrile, acetic acid, and water in a volume ratio of 60:0.2:40 eluted LE, AE and Δ^1-CA at 7.5, 3.2, and 2.2 min, respectively. Each sample was run in triplicate. The change in peak-area was recorded, and the percent ratio of each compound (LE, AE, and Δ^1-CA) toward total (LE+AE+Δ^1-CA) in peak-area was used to evaluate the disappearance of LE as well as the appearance of AE and Δ^1-CA. Since Δ^1-CA was used as an additive for LE+Δ^1-CA samples, the appearance of Δ^1-CA (from AE) was in the error range of these samples, and furthermore, in the LE-only samples, Δ^1-CA was observed from zero-time at 0.36±0.19% of total (LE+AE+Δ^1-CA), and less than, or about 0.5% thereafter in all LE-only samples; the number 0.5% was used as the amount of Δ^1-CA for all of LE+Δ^1-CA samples.

Sprague-Dawley rats = assay: Effect of steroid ointments on skin atrophy and thymus weight in rats; type: in vivo, rat; details: for PERCENT DECREASE IN SKIN THICKNESS / PERCENT DECREASE IN THYMUS WEIGHT: ointment on shaved dorsal skin, vs controls; for effect on thymus weight (in words) / skin atrophy (in words): topical ointment
Procedure: To investigate the effects of loteprednol etabonate (LE) on skin atrophy and thymus weight, the following experiments were conducted: Loteprednol etabonate (LE) and betamethasone valerate (BMV) were formulated by Otsuka Pharmaceuticals at a concentation of 0.1% in a white petrolatum base containing 5% propylene carbonate. All other test materials were steroidal anti-inflammatory compounds [Locoid® or hydrocortisone 17-butyrate (HCB) and Rinderon® or betamethasone 17-valerate (BMV-R) or white petrolatum vehicle as a control] which were commercially available in Japan at the time of testing. Sprague-Dawley rats were used in this study. All animals were from the animal research facilities of Otsuka Pharmaceutical Co. Ltd., Tokushima, Japan and all animal care and housing were according to their standard procedures. Groups of male rats (Sprague Dawley) weighing about 200-240 g were shaved on the dorsal surface. Loteprednol etabonate and betamethasone 17-valerate were administered as 0.1% ointments using white petrolatum base containing 5% propylene carbonate (PC). In separate groups, 0.12% betamethasone 17-valerate (Rinderon®), 0.1% hydrocortisone 17-butyrate (Locoid®) were administered as comparators. White petrolatum base (+5% PC) was administered to control animals. Two schedules of dosing were used: 200 mg/rat for 14 days (n=5) or 400 mg/rat for 7 days (n=7). At the end of these periods, rats were sacrificed. The thickness of a 1 cm^2 section of skin from the treated area was measured. The thymus was removed and weighed.

patient with necrobiosis = assay: Topical treatment of a patient with necrobiosis; type: in vivo, human; details: LE as 0.5% cream of Example 2
Source text: Further confirmation has been found in a patient with necrobiosis.

hairless mice = assay: Multi-week topical (photocarcinogenicity) study of loteprednol etabonate cream in hairless mice, with or without simulated sunlight; skinfold thickness; type: in vivo, mouse
Procedure: To investigate photocarcinogenicity, a multi-week study of loteprednol etabonate cream in hairless mice, with or without simulated sunlight, was undertaken. […] Because effects on skin atrophy were also recorded, however, and because a period of 4 weeks is the maximum recommended treatment period for eyelid dermatitis, results for the first 4 weeks of the study are given below. Mice were treated with the cream formulation once daily, five days per week. In the portion of the test summarized below, the cream contained LE in amounts of 0, 0.25% by weight and 0.5% by weight. (Higher concentrations were tested but results are not given here). Week 0 was baseline. After 4 weeks, skin thickness measurements were taken using a caliper. The cream also contained glycerin 99% USP, benzyl alcohol NF, purified water USP, carbomer 940 NF (Carbopol 980), glyceryl stearate/PEG 100 stearate, trolamine 99F, cetyl alcohol NF, stearyl alcohol NF, white petrolatum USP, light mineral oil NF and dimethicone (50 cst).

[2] = clinical trials, compared to prednisolone; cited from earlier work
[3] = anti-inflammatory activity; cited from earlier work
[4] = LE 0.1% + Δ^1-CA 0.1% suspension, 22.5° C.
[5] = LE 0.1% suspension, no Δ^1-CA, 22.5° C.
[6] = LE 0.2% + Δ^1-CA 0.2% suspension, 22.5° C.
[7] = LE 0.2% suspension, no Δ^1-CA, 22.5° C.
[8] = regimens of Table 2, listed as loteprednol etabonate

SMILES | PERCENT DECREASE IN SKIN THICKNESS (Sprague-Dawley rats; 200 mg/day - 14 d) | PERCENT DECREASE IN THYMUS WEIGHT (Sprague-Dawley rats; 200 mg/day - 14 d) | effect on thymus weight (in words) (Sprague-Dawley rats; regimens of Table 2) | skin atrophy (in words) (Sprague-Dawley rats; regimens of Table 2) | effect on inflammation / necrobiosis (patient with necrobiosis) | skin atrophy (skin thinning) (patient with necrobiosis) | PERCENT DECREASE IN SKIN THICKNESS (Sprague-Dawley rats; 400 mg/day - 7 d) | PERCENT DECREASE IN THYMUS WEIGHT (Sprague-Dawley rats; 400 mg/day - 7 d) | further results
CCOC(=O)OC1(C(=O)O)CC[C@H]2[C@@H]3CCC4=CC(=O)C=C[C@]4(C)[C@H]3C(O)C[C@@]21C (stereo partly shown) [AE] |  |  |  |  |  |  |  |  | stability of degradation product AE in the suspension ([1]; aqueous LE suspensions, 22.5° C.): stable
CCCCC(=O)O[C@]1(C(=O)CO)[C@@H](C)C[C@H]2[C@@H]3CCC4=CC(=O)C=C[C@]4(C)[C@@]3(F)[C@@H](O)C[C@@]21C [BMV, betamethasone 17-valerate] | 12.8* PERCENT | 70.1** PERCENT | significant decreases in thymus weight | caused skin atrophy | successful in lessening inflammation | thinned the skin |  |  | effect on thymus weight (in words) (Sprague-Dawley rats; regimens of Table 2, listed as Betamethasone valerate): most significant decreases in thymus weight
CCCC(=O)O[C@]1(C(=O)CO)CC[C@H]2[C@@H]3CCC4=CC(=O)CC[C@]4(C)[C@H]3[C@@H](O)C[C@@]21C [HCB, hydrocortisone 17-butyrate] | 17.9* PERCENT | 29.5* PERCENT | significant decreases in thymus weight | most marked; also recorded: caused skin atrophy |  |  | 12.8* PERCENT | 36.0** PERCENT | 
CCOC(=O)O[C@]1(C(=O)OCCl)CC[C@H]2[C@@H]3CCC4=CC(=O)C=C[C@]4(C)[C@H]3[C@@H](O)C[C@@]21C [LE, chloromethyl 17α-ethoxycarbonyloxy-11β-hydroxyandrosta-1,4-dien-3-one-17β-carboxylate] | 6.5% | 12.8% | minimal effects on skin atrophy and thymus weight | minimal effects on skin atrophy and thymus weight | effective in treating the necrobiosis by lessening inflammation | did not cause skin atrophy | 10.3% | −2.5% | skin atrophy (in words) (hairless mice; 1.5% and 4.5% by weight of LE and/or study extended to week 8 and week 13): more skin atrophy was seen; effect on skin thickness (in words) (hairless mice; LE at 0.25% and 0.5%, application for four weeks): no or minimal deleterious effect on skin thickness; t95% [1, 4]: 3.66 year; k [1, 4]: 3.84 day^−1 × 10^−5; t95% [1, 5]: 2.10 year; k [1, 5]: 6.69 day^−1 × 10^−5; t95% [1, 6]: 6.12 year; k [1, 6]: 2.30 day^−1 × 10^−5; t95% [1, 7]: 3.21 year; k [1, 7]: 4.38 day^−1 × 10^−5; stabilization of LE by increase in concentration ([1]; concentration from 0.1% to 0.2%, in either LE-only or LE+Δ^1-CA suspension): more than 1.5 times; stabilization of LE by Δ^1-cortienic acid relative to LE in the absence of the enhancer (increase of half-life) ([1]; same concentration of Δ^1-CA added to LE suspension): between one and one-half and two times; also recorded: almost two times; cataracts [2]: did not elevate intraocular pressure or cause cataracts; elevation of intraocular pressure [2]: did not elevate intraocular pressure; skin atrophy (in words) (Sprague-Dawley rats; regimens of Table 2, listed as Loteprednol etabonate): did not cause a statistically significant decrease in skin thickness; effect on thymus weight (in words) (Sprague-Dawley rats; [8]): did not effect thymus weight significantly; skin atrophy (in words) (Sprague-Dawley rats; [8]): less skin atrophy; activity relative to hydrocortisone (HC) [3]: approximately 20 times
